Tested on: angioedema in CSU patients
Assay: Phase 2 CSU study: angioedema activity score over 7 days (AAS7)
Format: in vivo, human
Set-up: AAS7, Median / AAS7 Change from baseline, Median: scale not given here
Conditions: for Non-responder n (%), AAS7 = 0 / OR (95% CI) for rilzabrutinib vs. placebo, AAS7 = 0 / RRD (%) for rilzabrutinib vs. placebo (95% CI), AAS7 = 0 / Responder n (%), AAS7 = 0: outlier removed
Excerpt: The study comprises a 12 week, randomized, double-blind, placebo-controlled, multi-center, dose-ranging efficacy and safety phase, followed by a 40 week open label extension (OLE) phase (see FIG. 1). The study consists of three phases and an optional OLE phase. […] The weekly angioedema activity score (AAS7) was proposed as a tertiary endpoint. […] Patients were to complete the AAS using the e-diary. The e-diary was to be used once daily on the same time of each day recording of participant's answers to the angioedema activity score over 7 days (AAS7) questionnaire.

[1] = 400 mg TID, Week 8, omalizumab-naïve, angioedema at baseline
[2] = 400 mg TID, Week 9, ITT, angioedema at baseline
[3] = 400 mg TID, Week 9, omalizumab-naïve
[4] = 400 mg TID, Week 9, omalizumab-naïve, angioedema at baseline
[5] = 400 mg TID, Week 10, ITT, angioedema at baseline
[6] = 400 mg TID, Week 10, omalizumab-naïve
[7] = 400 mg TID, Week 10, omalizumab-naïve, angioedema at baseline
[8] = 400 mg TID, Week 11, ITT, angioedema at baseline
[9] = 400 mg TID, Week 11, omalizumab-naïve
[10] = 400 mg TID, Week 11, omalizumab-naïve, angioedema at baseline
[11] = 400 mg TID, Week 12, ITT, angioedema at baseline
[12] = 400 mg TID, Week 12, omalizumab-naïve
[13] = 400 mg TID, Week 12, omalizumab-naïve, angioedema at baseline
[14] = 400 mg TID, omalizumab-naïve population, angioedema at baseline
[15] = End of Study, 400 mg TID, Incomplete Responders with angioedema at baseline, both values imputed
[16] = Omalizumab-Naïve Population, 400 mg BID, End of Study
[17] = Omalizumab-Naïve Population, 400 mg BID, Week 1
[18] = Omalizumab-Naïve Population, 400 mg BID, Week 2
[19] = Omalizumab-Naïve Population, 400 mg BID, Week 3
[20] = Omalizumab-Naïve Population, 400 mg BID, Week 4
[21] = Omalizumab-Naïve Population, 400 mg BID, Week 5
[22] = Omalizumab-Naïve Population, 400 mg BID, Week 6
[23] = Omalizumab-Naïve Population, 400 mg BID, Week 7
[24] = Omalizumab-Naïve Population, 400 mg BID, Week 8
[25] = Omalizumab-Naïve Population, 400 mg BID, Week 9

CC(C)(C=C(C#N)C(=O)N1CCC[C@@H](n2nc(-c3ccc(Oc4ccccc4)cc3F)c3c(N)ncnc32)C1)N1CCN(C2COC2)CC1 [rilzabrutinib, (R)-2-[3-[4-amino-3-(2-fluoro-4-phenoxy-phenyl)pyrazolo[3,4-d]pyrimidin-1-yl]piperidine-1-carbonyl]-4-methyl-4-[4-(oxetan-3-yl)piperazin-1-yl]pent-2-enenitrile]
AAS7 = 0, OR (95% CI) for rilzabrutinib vs. placebo [1]: 0.690
AAS7 = 0, RRD (%) for rilzabrutinib vs. placebo (95% CI) [1]: −6.2 %
AAS7 Post-baseline Mean (SD) [1]: 12.20 (13.05)
Participants with AAS7 = 0, Responder n (%) [1]: 6 (26.1) n (%)
AAS7 % Change difference for rilzabrutinib vs. placebo LS Mean (95% CI) [2]: −34.54 (−64.85, −4.23) %
AAS7 Change difference for rilzabrutinib vs. placebo LS Mean (95% CI) [2]: −13.12 (−23.93, −2.31)
AAS7 Change from baseline LS Mean (SE) [2]: −42.57 (4.09)
AAS7 Post-baseline Mean (SD) [2]: 7.98 (11.59)
Non-responder n (%), AAS7 = 0 [3]: 15 (44.1) n (%)
OR (95% CI) for rilzabrutinib vs. placebo, AAS7 = 0 [3]: 1.155
RRD (%) for rilzabrutinib vs. placebo (95% CI), AAS7 = 0 [3]: 3.6 %
Responder n (%), AAS7 = 0 [3]: 19 (55.9) n (%)
AAS7 % Change difference for rilzabrutinib vs. placebo LS Mean (95% CI) [4]: −37.56 (−71.28, −3.83) %
AAS7 % Change from baseline LS Mean (SE) [4]: −84.73 (12.57) %
AAS7 = 0, Non-responder n (%) [4]: 13 (56.5) n (%)
AAS7 = 0, OR (95% CI) for rilzabrutinib vs. placebo [4]: 1.358
AAS7 = 0, RRD (%) for rilzabrutinib vs. placebo (95% CI) [4]: 6.9 %
AAS7 Post-baseline Mean (SD) [4]: 8.52 (12.19)
Participants with AAS7 = 0, Responder n (%) [4]: 10 (43.5) n (%)
AAS7 % Change difference for rilzabrutinib vs. placebo LS Mean (95% CI) [5]: −38.35 (−79.56, 2.86) %
AAS7 % Change from baseline LS Mean (SE) [5]: −87.33 (15.54) %
AAS7 Change difference for rilzabrutinib vs. placebo LS Mean (95% CI) [5]: −13.07 (−24.96, −1.18)
AAS7 Change from baseline LS Mean (SE) [5]: −43.40 (4.49)
AAS7 Post-baseline Mean (SD) [5]: 7.10 (9.58)
Non-responder n (%), AAS7 = 0 [6]: 16 (47.1) n (%)
RRD (%) for rilzabrutinib vs. placebo (95% CI), AAS7 = 0 [6]: 6.0 %
Responder n (%), AAS7 = 0 [6]: 18 (52.9) n (%)
AAS7 % Change from baseline LS Mean (SE) [7]: −89.99 (16.85) %
AAS7 = 0, Non-responder n (%) [7]: 13 (56.5) n (%)
AAS7 = 0, OR (95% CI) for rilzabrutinib vs. placebo [7]: 1.627
AAS7 = 0, RRD (%) for rilzabrutinib vs. placebo (95% CI) [7]: 11.0 %
AAS7 Post-baseline Mean (SD) [7]: 6.83 (9.73)
Participants with AAS7 = 0, Responder n (%) [7]: 10 (43.5) n (%)
AAS7 % Change difference for rilzabrutinib vs. placebo LS Mean (95% CI) [8]: −15.53 (−43.68, 12.62) %
AAS7 Change difference for rilzabrutinib vs. placebo LS Mean (95% CI) [8]: −6.88 (−18.42, 4.67)
AAS7 Change from baseline LS Mean (SE) [8]: −40.74 (4.34)
AAS7 Post-baseline Mean (SD) [8]: 9.40 (13.36)
Non-responder n (%), AAS7 = 0 [9]: 15 (44.1) n (%)
OR (95% CI) for rilzabrutinib vs. placebo, AAS7 = 0 [9]: 1.142
RRD (%) for rilzabrutinib vs. placebo (95% CI), AAS7 = 0 [9]: 3.1 %
Responder n (%), AAS7 = 0 [9]: 19 (55.9) n (%)
AAS7 = 0, Non-responder n (%) [10]: 13 (56.5) n (%)
AAS7 = 0, OR (95% CI) for rilzabrutinib vs. placebo [10]: 1.160
AAS7 = 0, RRD (%) for rilzabrutinib vs. placebo (95% CI) [10]: 3.1 %
AAS7 Post-baseline Mean (SD) [10]: 9.80 (13.81)
Participants with AAS7 = 0, Responder n (%) [10]: 10 (43.5) n (%)
AAS7 % Change difference for rilzabrutinib vs. placebo LS Mean (95% CI) [11]: −19.84 (−46.44, 6.76) %
AAS7 % Change from baseline LS Mean (SE) [11]: −82.82 (10.03) %
AAS7 Change difference for rilzabrutinib vs. placebo LS Mean (95% CI) [11]: −8.06 (−19.05, 2.94)
AAS7 Change from baseline LS Mean (SE) [11]: −43.36 (4.14)
AAS7 Post-baseline Mean (SD) [11]: 7.37 (12.64)
patients with angioedema score (AAS7) of 0 [12]: 60.9%
Non-responder n (%), AAS7 = 0 [12]: 12 (35.3) n (%)
OR (95% CI) for rilzabrutinib vs. placebo, AAS7 = 0 [12]: 1.685
RRD (%) for rilzabrutinib vs. placebo (95% CI), AAS7 = 0 [12]: 13.0 %
Responder n (%), AAS7 = 0 [12]: 22 (64.7) n (%)
AAS7 = 0, Non-responder n (%) [13]: 9 (39.1) n (%)
AAS7 = 0, OR (95% CI) for rilzabrutinib vs. placebo [13]: 3.085
AAS7 = 0, RRD (%) for rilzabrutinib vs. placebo (95% CI) [13]: 29.7 %
AAS7 Post-baseline Mean (SD) [13]: 7.10 (12.86)
Participants with AAS7 = 0, Responder n (%) [13]: 14 (60.9) n (%)
LS mean change from baseline in AAS7 at Week 12 [14]: −44.04
decrease from baseline in AAS7 at Week 12 [14]: 84.63%
patients achieving angioedema score (AAS7) of 0 (400 mg TID, within one week of initiating treatment, omalizumab-naïve): 30.4%
AAS7, Mean (SD) [15]: 30.42 (14.73)
AAS7, Median [15]: 30.42
AAS7 Change from baseline, Mean (SD) [15]: 1.50 (2.12)
AAS7 Change from baseline, Median [15]: 1.50
AAS7 Percent change from baseline, Median [15]: 8.82
AAS7, Mean (SD) [16]: 27.33 (24.01)
AAS7, Median [16]: 37.00
AAS7 Change from baseline, Mean (SD) [16]: −38.33 (25.03)
AAS7 Change from baseline, Median [16]: −37.00
AAS7 Percent change from baseline, Mean (SD) [16]: −57.91 (38.75) %
AAS7 Percent change from baseline, Median [16]: −50.00%
AAS7 Change from baseline, Mean (SD) [17]: −21.44 (18.46)
AAS7 Change from baseline, Median [17]: −22.00
AAS7 Percent change from baseline, Mean (SD) [17]: 62.04 (42.40) %
AAS7 Percent change from baseline, Median [17]: −82.71%
AAS7, Median [18]: 14.00
AAS7 Change from baseline, Mean (SD) [18]: −22.60 (18.31)
AAS7 Change from baseline, Median [18]: −23.00
AAS7 Percent change from baseline, Mean (SD) [18]: −45.07 (90.72) %
AAS7 Percent change from baseline, Median [18]: −77.03%
AAS7, Median [19]: 6.50
AAS7 Change from baseline, Mean (SD) [19]: −30.63 (24.46)
AAS7 Change from baseline, Median [19]: −25.88
AAS7 Percent change from baseline, Mean (SD) [19]: −45.93 (125.55) %
AAS7 Percent change from baseline, Median [19]: −89.45%
AAS7 Change from baseline, Mean (SD) [20]: −30.05 (20.80)
AAS7 Change from baseline, Median [20]: −28.00
AAS7 Percent change from baseline, Mean (SD) [20]: −53.69 (109.03) %
AAS7 Percent change from baseline, Median [20]: −82.09%
AAS7, Median [21]: 0.00
AAS7 Change from baseline, Mean (SD) [21]: −30.86 (24.37)
AAS7 Change from baseline, Median [21]: −24.00
AAS7 Percent change from baseline, Mean (SD) [21]: −66.40 (54.16) %
AAS7 Percent change from baseline, Median [21]: −100.00%
AAS7, Median [22]: 3.00
AAS7 Change from baseline, Mean (SD) [22]: −31.58 (23.39)
AAS7 Change from baseline, Median [22]: −24.00
AAS7 Percent change from baseline, Mean (SD) [22]: −70.72 (39.56) %
AAS7 Percent change from baseline, Median [22]: −92.19%
AAS7, Median [23]: 4.67
AAS7 Change from baseline, Mean (SD) [23]: −33.54 (24.64)
AAS7 Change from baseline, Median [23]: −30.00
AAS7 Percent change from baseline, Mean (SD) [23]: −68.05 (40.33) %
AAS7 Percent change from baseline, Median [23]: −88.60%
AAS7, Median [24]: 0.00
AAS7 Change from baseline, Mean (SD) [24]: −36.21 (24.67)
AAS7 Change from baseline, Median [24]: −32.00
AAS7 Percent change from baseline, Mean (SD) [24]: −74.90 (43.31) %
AAS7 Percent change from baseline, Median [24]: −100.00%
AAS7, Median [25]: 0.00
AAS7 Change from baseline, Mean (SD) [25]: −34.83 (26.07)
AAS7 Change from baseline, Median [25]: −32.00
AAS7 Percent change from baseline, Mean (SD) [25]: −67.10 (66.88) %
AAS7 Percent change from baseline, Median [25]: −100.00%
